Regarding `c1ccc(C2CCCCC2)cc1`, the logP (usually the decadic logarithm of the partition coefficient of the neutral form, usually between octanol and water) stood at 5.54.

Turning to `C=CCCCCCCC=C`, the logP was found to be 5.7. For `BrCC(Br)C(Br)CBr` (centres undefined) the value was 3.22. As to `CCCCCCCCCCCCCCCCCCCl`, the logP worked out at 8.7.

Compound `c1ccc(Cc2ccccc2)cc1` returned a logP of 4.22. For `C=C(C)CC(C)(C)C` the value was 5.44; for `CCCCCCC(=O)OC`, 3.1. For `c1ccc2c(c1)ccc1cc3c(ccc4ccccc43)cc12` the value was 6.88. For `CCCCCCCCCC` the value was 6.69. With `CCCCC(CC)CCl` (centres undefined), the logP was 5.2. For the compound `CCCCCCCCCCCCCCCCC`, the logP amounted to 8.92. On to `Brc1ccc(Br)s1`, for which the lipophilicity (logP) turned out to be 4.15. For `Clc1cc(Cl)c(-c2c(Cl)cc(Cl)cc2Cl)c(Cl)c1` the value was 6.39; for `CC(C)CC(C)(C)C`, 5.83.

Source of the values: the SangsterLogP compilation.
